In brackets after ≈: the same amount, converted by molar mass.
Assays:
[1] = test system: Pseudomonas aeruginosa IFO 3445; experiment: Antibacterial activity, agar-dilution MIC, organism No. 15; format: cell-based; details: Pseudomonas aeruginosa, IFO3445; Organism No. 15, bouillon-agar; read-out: Minimum Inhibitory Concentration
Method in brief: (§1)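 MICs were determined by agar dilution on bouillon-agar medium. The value is the minimum concentration of specimen inhibiting growth, expressed as μg/ml of culture medium.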

[2] = test system: Escherichia coli NIHJ-JC-2; experiment: Antibacterial activity, agar-dilution MIC, organism No. 5; format: cell-based; details: Escherichia coli, NIHJJC2; Organism No. 5, bouillon-agar; read-out: Minimum Inhibitory Concentration
Method in brief: as §1

[3] = test system: Streptococcus faecium IFO 3826; experiment: Antibacterial activity, agar-dilution MIC, organism No. 27; format: cell-based; details: Enterococcus faecium, IFO3826; Organism No. 27, bouillon-agar; read-out: Minimum Inhibitory Concentration
Method in brief: as §1

[4] = test system: Proteus mirabilis IFO 3849; experiment: Antibacterial activity, agar-dilution MIC, organism No. 19; format: cell-based; details: Proteus mirabilis, IFO3849; Organism No. 19, bouillon-agar; read-out: Minimum Inhibitory Concentration
Method in brief: as §1

[5] = test system: Salmonella shottmuelleri 8006; experiment: Antibacterial activity, agar-dilution MIC, organism No. 11; format: cell-based; details: Salmonella, 8006; Organism No. 11, bouillon-agar; read-out: Minimum Inhibitory Concentration
Method in brief: as §1

Proteus vulgaris OX-19 = experiment: Antibacterial activity, agar-dilution MIC, organism No. 20; format: cell-based; details: Proteus vulgaris, OX19; Organism No. 20, bouillon-agar; read-out: Minimum Inhibitory Concentration
Method in brief: as §1

[6] = test system: Micrococcus luteus ATCC 9341; experiment: Antibacterial activity, agar-dilution MIC, organism No. 25; format: cell-based; details: Micrococcus luteus, ATCC9341; Organism No. 25, bouillon-agar; read-out: Minimum Inhibitory Concentration
Method in brief: as §1

[7] = test system: Streptococcus pyogenes Cook; experiment: Antibacterial activity, agar-dilution MIC, organism No. 4; format: cell-based; details: Streptococcus pyogenes; Organism No. 4, bouillon-agar; read-out: Minimum Inhibitory Concentration
Method in brief: as §1

[8] = test system: Serratia marcescens IAM 1184; experiment: Antibacterial activity, agar-dilution MIC, organism No. 13; format: cell-based; details: Serratia marcescens, IAM1184; Organism No. 13, bouillon-agar; read-out: Minimum Inhibitory Concentration
Method in brief: as §1

[9] = test system: Escherichia coli K12 C600 IAM 1264; experiment: Antibacterial activity, agar-dilution MIC, organism No. 6; format: cell-based; details: Escherichia coli, IAM1264; Organism No. 6, bouillon-agar; read-out: Minimum Inhibitory Concentration
Method in brief: as §1

[10] = test system: Proteus rettgeri IFO 3850; experiment: Antibacterial activity, agar-dilution MIC, organism No. 22; format: cell-based; details: Providencia rettgeri, IFO3850; Organism No. 22, bouillon-agar; read-out: Minimum Inhibitory Concentration
Method in brief: as §1

[11] = test system: Klebsiella pneumoniae PCI-602; experiment: Antibacterial activity, agar-dilution MIC, organism No. 7; format: cell-based; details: Klebsiella pneumoniae, PCI602; Organism No. 7, bouillon-agar; read-out: Minimum Inhibitory Concentration
Method in brief: as §1

Salmonella typhi 901 = experiment: Antibacterial activity, agar-dilution MIC, organism No. 9; format: cell-based; details: Salmonella enterica, TYPHI, read-out: Minimum Inhibitory Concentration
Method in brief: as §1

[12] = test system: Enterobacter aerogenes ATCC 13048; experiment: Antibacterial activity, agar-dilution MIC, organism No. 23; format: cell-based; details: Klebsiella aerogenes, ATCC13048; Organism No. 23, bouillon-agar; read-out: Minimum Inhibitory Concentration
Method in brief: as §1

[13] = test system: Proteus morganii IFO 3848; experiment: Antibacterial activity, agar-dilution MIC, organism No. 18; format: cell-based; details: Morganella morganii, IFO3848; Organism No. 18, bouillon-agar; read-out: Minimum Inhibitory Concentration
Method in brief: as §1

[14] = test system: Streptococcus pyogenes IFO 3340; experiment: Antibacterial activity, agar-dilution MIC, organism No. 26; format: cell-based; details: Streptococcus pyogenes, IFO3340; Organism No. 26, bouillon-agar; read-out: Minimum Inhibitory Concentration
Method in brief: as §1

[15] = test system: Salmonella paratyphi-A 1015; experiment: Antibacterial activity, agar-dilution MIC, organism No. 10; format: cell-based; details: Salmonella enterica, PARATYPHI, read-out: Minimum Inhibitory Concentration
Method in brief: as §1

[16] = test system: Staphylococcus aureus FDA 209PJc-1; experiment: Antibacterial activity, agar-dilution MIC, organism No. 1; format: cell-based; details: Staphylococcus aureus, FDA209PJC1; Organism No. 1, bouillon-agar; read-out: Minimum Inhibitory Concentration
Method in brief: as §1

[17] = test system: Aspergillus niger IFO 6342; experiment: Antifungal activity, agar-dilution MIC, organism No. 30; format: cell-based; details: Aspergillus niger, IFO6342; Organism No. 30, bouillon-agar; read-out: Minimum Inhibitory Concentration
Method in brief: as §1

Enterobacter cloacae 963 = experiment: Antibacterial activity, agar-dilution MIC, organism No. 24; format: cell-based; details: Enterobacter cloacae, 963; Organism No. 24, bouillon-agar; read-out: Minimum Inhibitory Concentration
Method in brief: as §1

[18] = test system: Pseudomonas aeruginosa NCTC 10490; experiment: Antibacterial activity, agar-dilution MIC, organism No. 16; format: cell-based; details: Pseudomonas aeruginosa, NCTC10490; Organism No. 16, bouillon-agar; read-out: Minimum Inhibitory Concentration
Method in brief: as §1

[19] = test system: Mycoplasma pneumoniae IID817; experiment: Antimycoplasmal activity, MIC by phenol red colour change, organism No. 28; format: cell-based; details: Mycoplasma, IID817; Organism No. 28, PPLO broth + 1% glucose, 37° C.; read-out: Minimum Inhibitory Concentration (MIC)
Protocol: Mycoplasma pneumoniae IID817 was used as the test microorganism in a culture medium prepared by adding 1% of glucose to "PPLO broth (manufactured by Difco Co.) liquid culture medium" at 37° C. with phenol red as an indicator, thereby culturing the test microorganism.

[20] = test system: Salmonella typhimurium IID 971; experiment: Antibacterial activity, agar-dilution MIC, organism No. 8; format: cell-based; details: Salmonella enterica; Organism No. 8, bouillon-agar; read-out: Minimum Inhibitory Concentration
Method in brief: as §1

Proteus vulgaris HX-19 = experiment: Antibacterial activity, agar-dilution MIC, organism No. 21; format: cell-based; details: Proteus vulgaris, HX19; Organism No. 21, bouillon-agar; read-out: Minimum Inhibitory Concentration
Method in brief: as §1

[21] = test system: Salmonella enteritidis G 14; experiment: Antibacterial activity, agar-dilution MIC, organism No. 12; format: cell-based; details: Salmonella enterica, ENTERITIDIS; Organism No. 12, bouillon-agar; read-out: Minimum Inhibitory Concentration
Method in brief: as §1

[22] = test system: Bacillus subtilis ATCC 6633; experiment: Antibacterial activity, agar-dilution MIC, organism No. 14; format: cell-based; details: Bacillus subtilis, ATCC6633; Organism No. 14, bouillon-agar; read-out: Minimum Inhibitory Concentration
Method in brief: as §1

[23] = test system: Staphylococcus aureus Terajima; experiment: Antibacterial activity, agar-dilution MIC, organism No. 2; format: cell-based; details: Staphylococcus aureus; Organism No. 2, bouillon-agar; read-out: Minimum Inhibitory Concentration
Method in brief: as §1

[24] = Stability in a non-solvent state; format: physicochemical
[25] = test system: Pseudomonas aeruginosa PAO 1; experiment: Antibacterial activity, agar-dilution MIC, organism No. 17; format: cell-based; details: Pseudomonas aeruginosa, PAO1; Organism No. 17, bouillon-agar; read-out: Minimum Inhibitory Concentration
Method in brief: as §1

[26] = test system: Candida albicans IAM 4905; experiment: Antifungal activity, agar-dilution MIC, organism No. 29; format: cell-based; details: Candida albicans, IAM4905; Organism No. 29, bouillon-agar; read-out: Minimum Inhibitory Concentration
Method in brief: as §1

[27] = test system: Staphylococcus aureus MS 353; experiment: Antibacterial activity, agar-dilution MIC, organism No. 3; format: cell-based; details: Staphylococcus aureus, MS353; Organism No. 3, bouillon-agar; read-out: Minimum Inhibitory Concentration
Method in brief: as §1

[C-]#[N+]C12CC3(/C=C/C(=O)OCC)OC3C1O2 (stereo not drawn) [Compound No. 2, ethyl β-substituted acrylate]
MIC [1]: > 200 µg/mL | MIC [2]: 50 µg/mL (≈ 226 µM) | MIC [3]: 12.5 µg/mL (≈ 56.5 µM) | MIC [4]: 25 µg/mL (≈ 113 µM) | MIC [5]: 6.25 µg/mL (≈ 28.3 µM) | MIC (Proteus vulgaris OX-19): 6.25 µg/mL (≈ 28.3 µM) | MIC [6]: 1.56 µg/mL (≈ 7.05 µM) | MIC [7]: > 200 µg/mL | MIC [8]: > 200 µg/mL | MIC [9]: 25 µg/mL (≈ 113 µM) | MIC [10]: > 200 µg/mL | MIC [11]: 6.25 µg/mL (≈ 28.3 µM) | MIC (Salmonella typhi 901): 6.25 µg/mL (≈ 28.3 µM) | MIC [12]: > 200 µg/mL | MIC [13]: 6.25 µg/mL (≈ 28.3 µM) | MIC [14]: 100 µg/mL (≈ 452 µM) | MIC [15]: 6.25 µg/mL (≈ 28.3 µM) | MIC [16]: 12.5 µg/mL (≈ 56.5 µM) | MIC [17]: 12.5 µg/mL (≈ 56.5 µM) | MIC (Enterobacter cloacae 963): > 200 µg/mL | MIC [18]: > 200 µg/mL | MIC [19]: < 0.2 µg/mL | MIC [20]: 25 µg/mL (≈ 113 µM) | MIC (Proteus vulgaris HX-19): 0.2 µg/mL (≈ 0.904 µM) | MIC [21]: 6.25 µg/mL (≈ 28.3 µM) | MIC [22]: 50 µg/mL (≈ 226 µM) | MIC [23]: 12.5 µg/mL (≈ 56.5 µM) | stability (in words) [24]: decomposing and colouring tendency in a non-solvent state | MIC [25]: > 200 µg/mL | MIC [26]: 3.13 µg/mL (≈ 14.1 µM) | MIC [27]: 12.5 µg/mL (≈ 56.5 µM)

[C-]#[N+]C12CC3(/C=C/C(=O)OCc4ccccc4)OC3C1O2 (stereo not drawn) [Compound No. 10, benzyl β-substituted acrylate]
MIC [1]: > 100 µg/mL | MIC [2]: 6.25 µg/mL (≈ 22.1 µM) | MIC [3]: 1.56 µg/mL (≈ 5.51 µM) | MIC [4]: 3.13 µg/mL (≈ 11 µM) | MIC [5]: < 0.1 µg/mL | MIC (Proteus vulgaris OX-19): < 0.1 µg/mL | MIC [6]: < 0.1 µg/mL | MIC [7]: 3.13 µg/mL (≈ 11 µM) | MIC [8]: 12.5 µg/mL (≈ 44.1 µM) | MIC [9]: 3.13 µg/mL (≈ 11 µM) | MIC [10]: 6.25 µg/mL (≈ 22.1 µM) | MIC [11]: < 0.1 µg/mL | MIC (Salmonella typhi 901): 0.78 µg/mL (≈ 2.75 µM) | MIC [12]: > 100 µg/mL | MIC [13]: 0.39 µg/mL (≈ 1.38 µM) | MIC [14]: 3.13 µg/mL (≈ 11 µM) | MIC [15]: 0.78 µg/mL (≈ 2.75 µM) | MIC [16]: 0.39 µg/mL (≈ 1.38 µM) | MIC [17]: 1.56 µg/mL (≈ 5.51 µM) | MIC (Enterobacter cloacae 963): 50 µg/mL (≈ 177 µM) | MIC [18]: > 100 µg/mL | MIC [19]: < 0.2 µg/mL | MIC [20]: 3.13 µg/mL (≈ 11 µM) | MIC (Proteus vulgaris HX-19): < 0.1 µg/mL | MIC [21]: 3.13 µg/mL (≈ 11 µM) | MIC [22]: 0.78 µg/mL (≈ 2.75 µM) | MIC [23]: 1.56 µg/mL (≈ 5.51 µM) | stability (in words) [24]: decomposed and coloured when left in a non-solvent state | MIC [25]: > 100 µg/mL | MIC [26]: 0.8 µg/mL (≈ 2.82 µM) | MIC [27]: 0.39 µg/mL (≈ 1.38 µM)

From US4684664A, “Derivatives of β-(4-isocyano-1,2,3,4-diepoxycyclopentyl) acrylic acid” (Kureha Kagaku Kogyo Kabushiki Kaisha, priority 1984, dated 1987)
